We go through 22 compounds from patent US12692261B2, “Substituted heterocyclic compounds and therapeutic uses thereof” (Bayer Aktiengesellschaft, priority 2020, dated 2026).

Where two headings read alike, the source gives them in different places. A value given as a limit tells only on which side of the number the result lay.

The target of test [1] is T1, full-length human CSNK1A1 (Homo sapiens, UniProt P48729).
T1 construct: N-terminal Glutathion-S-Transferase (GST) and full-length human CSNK1A1; purchased Life Technologies PV4174; host or cells: baculovirus infected insect cells
Description: CSNK1A1 Assay 2 (ADP-Glo, 1 μM ATP, substrate biotin-Ahx-KRRRAL-pS-VASLPGL). The class given is biochemical. The note with it: Table 3, read-out: CSNK1A1 Assay 2 IC50 [mol/l] (median). The procedure, abridged:
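GST-tagged full-length human CSNK1A1 from baculovirus-infected insect cells (about 0.0375 ng/μL), preincubated 15 min at 22 °C with compound in HEPES pH 7.5 buffer, with 1 μM ATP and biotin-Ahx-KRRRAL-pS-VASLPGL substrate. ADP formed read by ADP-Glo luminescence.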

Test [2] concerns the target T2, wild-type Epidermal Growth Factor Receptor (EGFR) (Homo sapiens, UniProt P00533).
T2 construct: a fragment of human EGFR (amino acids R669 to A1210); made in house; host or cells: Sf9 insect cells
Description: WT-EGFR Kinase Assay (TR-FRET, 2 mM ATP). Type of test: biochemical. Summed up:
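GST-fused human EGFR fragment (R669-A1210) from Sf9 cells, typically 7.6 pg/μL, pre-incubated with compound 15 min at 22° C in Hepes pH 7.0 buffer with MgCl2, DTT and vanadate; biotinylated peptide substrate. After EDTA stop, phosphopeptide detected by TR-FRET (anti-phosphotyrosine Tb-cryptate/streptavidin-XL665), 665/620 nm emission ratio.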

Setting [3] is: EGFR Wildtyp 2 mM ATP IC50 [mol/l] (median), Table 4.
The mark [4] stands for this setting: read-out: EGFR Wildtyp 2 mM ATP IC50 [mol/l] (median), Table 4.

T2 sequence (P00533 669-1210): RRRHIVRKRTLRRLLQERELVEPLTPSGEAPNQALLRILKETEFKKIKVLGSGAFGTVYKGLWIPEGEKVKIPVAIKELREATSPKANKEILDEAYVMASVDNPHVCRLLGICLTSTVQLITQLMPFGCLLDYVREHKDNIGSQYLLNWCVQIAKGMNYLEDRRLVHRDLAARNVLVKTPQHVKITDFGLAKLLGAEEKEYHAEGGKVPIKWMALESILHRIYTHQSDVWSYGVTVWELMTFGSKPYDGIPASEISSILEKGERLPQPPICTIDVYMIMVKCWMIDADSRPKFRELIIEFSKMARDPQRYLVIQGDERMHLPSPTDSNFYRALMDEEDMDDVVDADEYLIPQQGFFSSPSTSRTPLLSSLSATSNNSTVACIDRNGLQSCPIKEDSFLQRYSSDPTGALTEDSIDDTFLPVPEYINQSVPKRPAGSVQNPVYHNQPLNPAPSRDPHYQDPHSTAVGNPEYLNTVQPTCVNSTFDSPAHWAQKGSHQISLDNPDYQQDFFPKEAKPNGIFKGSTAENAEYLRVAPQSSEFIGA
T1 sequence (P48729 whole entry): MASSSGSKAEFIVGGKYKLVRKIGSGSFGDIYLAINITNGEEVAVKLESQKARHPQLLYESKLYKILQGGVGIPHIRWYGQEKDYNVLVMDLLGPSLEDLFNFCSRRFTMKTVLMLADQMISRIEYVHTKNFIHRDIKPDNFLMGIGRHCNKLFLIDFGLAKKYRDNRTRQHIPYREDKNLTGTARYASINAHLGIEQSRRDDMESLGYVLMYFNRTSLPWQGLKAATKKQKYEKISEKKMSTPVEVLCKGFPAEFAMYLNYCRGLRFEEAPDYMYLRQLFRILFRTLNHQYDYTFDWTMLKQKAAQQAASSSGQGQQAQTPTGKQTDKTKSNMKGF

As to `O=C(Nc1cc(-c2[nH]c3cccnc3c2-c2ccccn2)ccn1)C(CCO)c1ccc(F)cc1` (centres unmarked) [Example 104, 2-(4-fluorophenyl)-4-hydroxy-N-(4-(3-(pyridin-2-yl)-1H-pyrrolo[3,2-b]pyridin-2-yl)pyridin-2-yl)-butanamide], the IC50 in test [1] was 6.29 nM; in test [2] (setting [3]), greater than 20000 nM.

On to `COc1ncnc2c(-c3ccccn3)c(-c3ccnc(NC(=O)C(CC(F)F)c4ccc(F)cc4)c3)[nH]c12` (centres unmarked) [Example 113, 4,4-difluoro-2-(4-fluorophenyl)-N-{4-[4-methoxy-7-(pyridin-2-yl)-5H-pyrrolo[3,2-d]pyrimidin-6-yl]pyridin-2-yl}butanamide], for which the results for the IC50 in test [1] and in test [2] (setting [3]) were 3.74 nM and greater than 20000 nM, respectively.

For `O=C(Nc1cc(-c2[nH]c3c(OCC4CC4)ncnc3c2-c2ccccn2)ccn1)C(CC(F)F)c1ccc(F)cc1` (single isomer, unassigned) [Example 130, (2R or S)—N-{4-[4-(cyclopropylmethoxy)-7-(pyridin-2-yl)-5H-pyrrolo[3,2-d]pyrimidin-6-yl]pyridin-2-yl}-4,4-difluoro-2-(4-fluorophenyl)butanamide], the IC50 in test [1] was found to be 43.7 nM; in test [2] (setting [3]) it was 6670 nM.

As to `O=C(Nc1cc(-c2[nH]c3c(CC4CC4)cc(F)nc3c2-c2ccccn2)ccn1)C(CC(F)F)c1ccc(F)cc1` (single isomer, unassigned) [Example 48, (2R or S)—N-{4-[7-(cyclopropylmethyl)-5-fluoro-3-(pyridin-2-yl)-1H-pyrrolo[3,2-b]pyridin-2-yl]pyridin-2-yl}-4,4-difluoro-2-(4-fluorophenyl)butanamide], the IC50 is 9.91 nM in test [1] and greater than 20000 nM in test [2] (setting [4]).

With `COc1cc(F)nc2c(-c3ccccn3)c(-c3ccnc(NC(=O)C(CC(F)F)c4ccc(F)cc4)c3)[nH]c12` (single isomer, unassigned; (-)) [Example 41, (−)-4,4-difluoro-N-{4-[5-fluoro-7-methoxy-3-(pyridin-2-yl)-1H-pyrrolo[3,2-b]pyridin-2-yl]pyridin-2-yl}-2-(4-fluorophenyl)butanamide], the IC50 in test [1] was 3.37 nM; in test [2] (setting [4]), greater than 20000 nM.

On to `O=C(Nc1cc(-c2[nH]c3ccc(F)nc3c2-c2cc(F)ccn2)ccn1)C(CC(F)F)c1ccc(F)cc1` (racemic) [Example 95, (2RS)-4,4-difluoro-N-{4-[5-fluoro-3-(4-fluoropyridin-2-yl)-1H-pyrrolo[3,2-b]pyridin-2-yl]pyridin-2-yl}-2-(4-fluorophenyl)butanamide], for which the IC50 in test [1] is 5.62 nM; in test [2] (setting [3]), greater than 20000 nM.

For the compound `O=C(Nc1cc(-c2[nH]c3c(OCC4CC4)ncnc3c2-c2ccccn2)ccn1)C(CC(F)F)c1ccc(F)cc1` (racemic) [Example 128, (2RS)—N-{4-[4-(cyclopropylmethoxy)-7-(pyridin-2-yl)-5H-pyrrolo[3,2-d]pyrimidin-6-yl]pyridin-2-yl}-4,4-difluoro-2-(4-fluorophenyl)butanamide], the IC50 in test [1] is 8.03 nM; in test [2] (setting [3]), 11200 nM.

`O=C(Nc1cc(-c2[nH]c3ccc(F)nc3c2-c2ccc(F)cn2)ccn1)C(CC(F)F)c1ccc(F)cc1` (single isomer, unassigned; (-)) [Example 110, (−)-4,4-difluoro-N-{4-[5-fluoro-3-(5-fluoropyridin-2-yl)-1H-pyrrolo[3,2-b]pyridin-2-yl]pyridin-2-yl}-2-(4-fluorophenyl)butanamide]: the IC50 was 47.6 nM in test [1] and greater than 20000 nM in test [2] (setting [4]).

For the compound `O=C(Nc1cc(-c2[nH]c3c(OCC(F)(F)F)ncnc3c2-c2ccccn2)ccn1)C(CC(F)F)c1ccc(F)cc1` (single isomer, unassigned) [Example 124, (2R or S)-4,4-difluoro-2-(4-fluorophenyl)-N-{4-[7-(pyridin-2-yl)-4-(2,2,2-trifluoroethoxy)-5H-pyrrolo[3,2-d]pyrimidin-6-yl]pyridin-2-yl}butanamide], the IC50 is 30 nM in test [1] and greater than 20000 nM in test [2] (setting [4]).

On to `Cc1cnc2c(-c3ccccn3)c(-c3ccnc(NC(=O)C(CC(F)F)c4ccc(F)cc4)c3)[nH]c2c1` (single isomer, unassigned) [Example 9, 4,4-difluoro-2-(4-fluorophenyl)-N-{4-[6-methyl-3-(pyridin-2-yl)-1H-pyrrolo[3,2-b]pyridin-2-yl]pyridin-2-yl}butanamide], for which the IC50 in test [1] is 15.8 nM; in test [2] (setting [4]) it was greater than 20000 nM.

For `COc1cnc2c(-c3ccccn3)c(-c3ccnc(NC(=O)C(CC(F)F)c4ccc(F)cc4)c3)[nH]c2n1` (centres unmarked) [Example 101, 4,4-difluoro-2-(4-fluorophenyl)-N-{4-[3-methoxy-7-(pyridin-2-yl)-5H-pyrrolo[2,3-b]pyrazin-6-yl]pyridin-2-yl}butanamide], the IC50 in test [1] is 4.82 nM; in test [2] (setting [3]), greater than 20000 nM.

Take `O=C(Nc1cc(-c2[nH]c3c(C4CCCO4)cc(F)nc3c2-c2ccccn2)ccn1)C(CC(F)F)c1ccc(F)cc1` (single isomer, unassigned) [Example 116, (2R or S)-4,4-difluoro-N-(4-{5-fluoro-7-[(2R or S)-oxolan-2-yl]-3-(pyridin-2-yl)-1H-pyrrolo[3,2-b]pyridin-2-yl}pyridin-2-yl)-2-(4-fluorophenyl)butanamide]: the IC50 came out at 5.1 nM in test [1] and 15100 nM in test [2] (setting [3]).

In the case of `O=C(Nc1cc(-c2[nH]c3c(OCC(F)F)cc(F)nc3c2-c2ccccn2)ccn1)C(CC(F)F)c1ccc(F)cc1` (single isomer, unassigned) [Example 29, (2R or S)—N-{4-[7-(2,2-difluoroethoxy)-5-fluoro-3-(pyridin-2-yl)-1H-pyrrolo[3,2-b]pyridin-2-yl]pyridin-2-yl}-4,4-difluoro-2-(4-fluorophenyl)butanamide], the IC50 is 3.31 nM in test [1] and greater than 20000 nM in test [2] (setting [3]).

As to `O=C(Nc1cc(-c2[nH]c3ccc(F)nc3c2-c2ccccn2)ccn1)[C@H](CC(F)F)c1ccc(F)cc1` (single isomer, unassigned) [Example 3], the IC50 was 9.21 nM in test [1] and greater than 20000 nM in test [2] (setting [3]).

Take `O=C(Nc1cc(-c2[nH]c3c(Cl)ccnc3c2-c2ccccn2)ccn1)C(CC(F)F)c1ccc(F)cc1` (racemic) [Example 49, (2RS)—N-{4-[7-chloro-3-(pyridin-2-yl)-1H-pyrrolo[3,2-b]pyridin-2-yl]pyridin-2-yl}-4,4-difluoro-2-(4-fluorophenyl)butanamide]: the IC50 in test [1] is 3.64 nM; in test [2] (setting [3]), greater than 20000 nM.

Consider `O=C(Nc1cc(-c2[nH]c3cccnc3c2-c2cccc(F)n2)ccn1)C(CC(F)F)c1ccc(F)cc1` (single isomer, unassigned; (-)) [Example 26, (−)-4,4-difluoro-2-(4-fluorophenyl)-N-{4-[3-(6-fluoropyridin-2-yl)-1H-pyrrolo[3,2-b]pyridin-2-yl]pyridin-2-yl}butanamide], for which the results for the IC50 in test [1] and in test [2] (setting [3]) were 15.8 nM and greater than 20000 nM, respectively.

On to `O=C(Nc1cc(-c2[nH]c3cccnc3c2-c2ccccn2)ccn1)C(CC(F)F)c1ccc(F)cc1` (racemic) [Example 10, 4,4-difluoro-2-(4-fluorophenyl)-N-{4-[3-(pyridin-2-yl)-1H-pyrrolo[3,2-b]pyridin-2-yl]pyridin-2-yl}butanamide], for which the results for the IC50 in test [1] and in test [2] (setting [3]) were 2.61 nM and greater than 20000 nM, respectively.

For the compound `O=C(Nc1cc(-c2[nH]c3c(OC[C@H]4COCCO4)cc(F)nc3c2-c2ccccn2)ccn1)C(CC(F)F)c1ccc(F)cc1` (mixture of isomers) [Example 50, (2RS)—N-{4-[7-{[(2R)-1,4-dioxan-2-yl]methoxy}-5-fluoro-3-(pyridin-2-yl)-1H-pyrrolo[3,2-b]pyridin-2-yl]pyridin-2-yl}-4,4-difluoro-2-(4-fluorophenyl)butanamide], the IC50 was 9.34 nM in test [1] and greater than 20000 nM in test [2] (setting [3]).

Turning to `O=C(Nc1cc(-c2[nH]c3nccnc3c2-c2ccccn2)ccn1)C(CC(F)F)c1ccc(F)cc1` (racemic) [Example 31, (2RS)-4,4-difluoro-2-(4-fluorophenyl)-N-{4-[7-(pyridin-2-yl)-5H-pyrrolo[2,3-b]pyrazin-6-yl]pyridin-2-yl}butanamide], the IC50 in test [1] is 3.04 nM; in test [2] (setting [3]) it was greater than 20000 nM.

For `O=C(Nc1cc(-c2[nH]c3ccc(F)nc3c2-c2ccc(F)cn2)ccn1)C(CC(F)F)c1ccc(F)cc1` (single isomer, unassigned; (+)) [Example 109, (+)-4,4-difluoro-N-{4-[5-fluoro-3-(5-fluoropyridin-2-yl)-1H-pyrrolo[3,2-b]pyridin-2-yl]pyridin-2-yl}-2-(4-fluorophenyl)butanamide], the IC50 in test [1] was 3.14 nM; in test [2] (setting [3]), greater than 20000 nM.

Take `O=C(Nc1cc(-c2[nH]c3c(C4CCCO4)cc(F)nc3c2-c2ccccn2)ccn1)C(CC(F)F)c1ccc(F)cc1` (single isomer, unassigned) [Example 115, (2R or S)-4,4-difluoro-N-(4-{5-fluoro-7-[(2R or S)-oxolan-2-yl]-3-(pyridin-2-yl)-1H-pyrrolo[3,2-b]pyridin-2-yl}pyridin-2-yl)-2-(4-fluorophenyl)butanamide]: the IC50 in test [1] was determined as 5.84 nM; in test [2] (setting [3]) it was 19600 nM.

Consider `COc1cnc2c(-c3ccccn3)c(-c3ccnc(NC(=O)C(CC(F)F)c4ccc(F)cc4)c3)[nH]c2n1` (single isomer, unassigned) [Example 102, 4,4-difluoro-2-(4-fluorophenyl)-N-{4-[3-methoxy-7-(pyridin-2-yl)-5H-pyrrolo[2,3-b]pyrazin-6-yl]pyridin-2-yl}butanamide], for which the IC50 in test [1] is 31.1 nM; in test [2] (setting [3]) it was greater than 20000 nM.
